Reference: article PMC6054100, “Exploring the chemical space of the lysine-binding pocket of the first kringle domain of hepatocyte growth factor/scatter factor (HGF/SF) yields a new class of inhibitors of HGF/SF-MET binding” (Chemical Science, 2015)

Key:
NK1 = NK1 (Homo sapiens, UniProt P14210); test: 1H-15N TROSY-HSQC NMR chemical shift titration of 15N-labelled NK1; format: binding; parameters: made in house; host or cells: Pichia pastoris
Procedure: Ligand screening was performed by monitoring the chemical shift variations in ^1H-^15N TROSY-HSQC NMR spectra of the uniformly [^15N]-labelled NK1 protein (Fragai et al. 2015, in prep.) upon the addition of increasing concentrations of the investigated compounds.[43]–[45] The experiments were performed using 0.18 mM protein samples in 25 mM Tris, 100 mM NaCl and 0.01% sodium azide, at pH 7.2 with 10% D2O. The spectra were recorded at 310 K on a Bruker AVANCE 900 MHz spectrometer equipped with a TXI cryo-probe. Sample solutions were prepared from 1 M or 100 mM DMSO stock solutions of the ligands. The dissociation constant values (KD) were calculated by plotting the weighted average ^1H and ^15N chemical shifts of the residues experiencing significant variations as a function of ligand concentration added during the titration and considering the one site binding model.[46]

[1] = system: MET downstream signalling (Erk 1/2, Akt) in Vero cells; test: MET, Erk1/2 and Akt phosphorylation assay in NK1-stimulated Vero cells (Western blot); format: cell-based; conditions: Vero cells stimulated with NK1; compound 1 mM (lane 5), 0.1% DMSO
Procedure: We evaluated the effect of piperazine-like compounds and MB605 on Vero cells by assessing MET, Erk 1/2 and Akt phosphorylation in response to stimulation using […] NK1. MB605 was dissolved in DMSO, which limited the range of concentrations tested to ≤1 mM in order to avoid solvent effects on cell function/viability. The water-soluble piperazine-like compounds, in contrast, could be tested at concentrations up to 100 mM.
Fig. 6 Biological activity of the piperazine-like compounds and MB605. (a–e) Vero cells expressing the receptor endogenously on their cell surface were stimulated with HGF/SF or NK1 and phosphorylation of MET and downstream targets Akt and Erk1/2 was analysed. Piperazine-like compounds HEPES (a), (H)EPPS (b), MES (c), MOPS (d) and CAPS (e) were tested at 100 mM (lanes 4), 10 mM (lanes 5), 1 mM (lanes 6) and 100 μM (lanes 7) concentration in the presence of 1 nM NK1. To control for activating or inhibiting effects of the compounds independently of MET, piperazine-like compounds were tested on cells at 100 mM without stimulation by NK1 (lanes 3). Biological activity of MB605 (f) was investigated at 1 mM (lane 5), 100 μM (lane 6) and 10 μM (lane 7) in the presence of a constant concentration of DMSO (0.1%). A solvent control (0.1% DMSO, lane 3) was included in order to account for the effect of DMSO on the cells. A positive control (1 nM NK1 in the presence of 0.1% DMSO) is shown in lane 4. In all experiments, un-stimulated cells served as negative control (lanes 1) while cells stimulated with 1 nM NK1 served as positive control (lanes 2).
The ability of MB605 and the piperazine-like compounds to inhibit MET, Erk and Akt phosphorylation in the presence of NK1 was tested using mammalian Vero cells as described by Ferraris et al.[47] and further details are given in the ESI ^† section of the manuscript. […]
For MET, Erk1/2 and Akt phosphorylation assays, Vero cells were seeded at 2.1 × 10^5 cells we ll -1 (2 ml we ll -1) in 6-well plates and grown to 90% conf luence in 10% FCS/DMEM media and then switched to serum-free medium (to avoid any growth f actors present in the serum).
24 hours post starvation the cells were stimulated for 5 min at 37°C with each individual piperazine -like compounds as well as with NK1 (1 nM) pre-incubated with different concentrations of the piperazine- like compounds (100 mM, 10 mM, 1 mM and 100 μM) or MB605 (1 mM, 100 μM and 10 μM). Stimulations with either 0. 1% DMS O or 1 nM of NK1 […]
solution were used as a negative and a positive control, respectively. The cells were then washed in PBS buffer, lysed on ice f or 30 min and frozen at -80 °C until further analysis. For

NK1, sequence (P14210 32-210 isoform P14210-6 limits assumed): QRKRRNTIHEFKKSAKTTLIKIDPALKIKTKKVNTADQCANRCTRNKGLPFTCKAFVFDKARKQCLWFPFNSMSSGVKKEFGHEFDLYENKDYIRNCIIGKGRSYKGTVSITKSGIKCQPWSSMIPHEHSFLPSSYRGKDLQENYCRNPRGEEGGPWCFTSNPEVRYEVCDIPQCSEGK

variation in chemical shifts for NK1 residues (NK1; 1H-15N TROSY-HSQC, residues in and around the lysine-binding pocket): showed variation in chemical shifts
Kd (NK1; NMR chemical shift titration, read-out: KD): 110 µM
Structure (SMILES): O=C(O)CCc1ccco1 [MB605]
Activity on NK1-induced MET, Erk 1/2 and Akt phosphorylation [1]: active
